In US20230157952A1, “METHOD FOR IMPROVING THE STABILITY OF A PHARMACEUTICAL COMPOSITION COMPRISING A HIGH PENETRATION DRUG, AND THE PHARMACEUTICAL COMPOSITION OBTAINED THEREFROM” (Techfields Inc., priority 2020, published 2023):

How the values were obtained:
[1] = Effect of temperature (and pH) on the stability of the solution (purity); format: physicochemical; conditions: 7% solution in water
[2] = Effect of concentration on the stability of the solution (purity over time); conditions: in water at 25° C.

For CCN(CC)CCOC(=O)Cc1ccc(C(=O)c2ccc(C)cc2)n1C.Cl [2-(diethylamino)ethyl 1-methyl-5-(4-methylbenzoyl)-1H-pyrrole-2-acetate•HCl], the “Stability of the solution at a temperature higher than 40° C. and a pH lower than 3 or greater than 6” value [1] was “not stable”, the “Purity at Day 3” value ([2]; 0.01 wt %) was 82.3% and the “Purity at Day 7” value ([2]; 0.01 wt %) was 72.2%. The “Purity at Day 14” value ([2]; 0.01 wt %) was 57.4%, the “Purity at Day 21” value ([2]; 0.01 wt %) was 45.4% and the “Purity at Day 28” value ([2]; 0.01 wt %) was 35.7%. For the same molecule, the “Purity at hr 0” value ([2]; 0.01 wt %) was 97.4%, the “Purity at Day 3” value ([2]; 0.1 wt %) was 95.6% and the “Purity at Day 7” value ([2]; 0.1 wt %) was 93.3%. For the same molecule, the “Purity at Day 14” value ([2]; 0.1 wt %) was 88.3%, the “Purity at Day 21” value ([2]; 0.1 wt %) was 83.5% and the “Purity at Day 28” value ([2]; 0.1 wt %) was 78.1%. For the same molecule, the “Purity at hr 0” value ([2]; 0.1 wt %) was 97.5%, the “Purity at Day 3” value ([2]; 1 wt %) was 95.7% and the “Purity at Day 7” value ([2]; 1 wt %) was 94.6%. The “Purity at Day 14” value ([2]; 1 wt %) was 92.3%, the “Purity at Day 21” value ([2]; 1 wt %) was 90.1% and the “Purity at Day 28” value ([2]; 1 wt %) was 88.6%. For the same molecule, the “Purity at hr 0” value ([2]; 1 wt %) was 97.7%, the “Purity at Day 3” value ([2]; 3 wt %) was 96.5% and the “Purity at Day 7” value ([2]; 3 wt %) was 96.2%. The “Purity at Day 14” value ([2]; 3 wt %) was 94.8%, the “Purity at Day 21” value ([2]; 3 wt %) was 94.0% and the “Purity at Day 28” value ([2]; 3 wt %) was 92.7%. For the same molecule, the “Purity at hr 0” value ([2]; 3 wt %) was 97.9%, the “Purity at Day 3” value ([2]; 5 wt %) was 97.2% and the “Purity at Day 7” value ([2]; 5 wt %) was 97.0%. For the same molecule, the “Purity at Day 14” value ([2]; 5 wt %) was 96.8%, the “Purity at Day 21” value ([2]; 5 wt %) was 95.6% and the “Purity at Day 28” value ([2]; 5 wt %) was 94.4%. For the same molecule, the “Purity at hr 0” value ([2]; 5 wt %) was 97.9%, the “Purity at Day 3” value ([2]; 7 wt %) was 97.5% and the “Purity at Day 7” value ([2]; 7 wt %) was 97.2%. The “Purity at Day 14” value ([2]; 7 wt %) was 97.2%, the “Purity at Day 21” value ([2]; 7 wt %) was 96.7% and the “Purity at Day 28” value ([2]; 7 wt %) was 96.5%. For the same molecule, the “Purity at hr 0” value ([2]; 7 wt %) was 98.1%, the “Purity at Day 3” value ([2]; 8 wt %) was 97.7% and the “Purity at Day 7” value ([2]; 8 wt %) was 97.3%. For the same molecule, the “Purity at Day 14” value ([2]; 8 wt %) was 96.9%, the “Purity at Day 21” value ([2]; 8 wt %) was 96.9% and the “Purity at Day 28” value ([2]; 8 wt %) was 96.6%. For the same molecule, the “Purity at hr 0” value ([2]; 8 wt %) was 98.1%, the “Purity at Day 3” value ([2]; 10 wt %) was 97.9% and the “Purity at Day 7” value ([2]; 10 wt %) was 97.5%. For the same molecule, the “Purity at Day 14” value ([2]; 10 wt %) was 97.3%, the “Purity at Day 21” value ([2]; 10 wt %) was 97.1% and the “Purity at Day 28” value ([2]; 10 wt %) was 96.5%. For the same molecule, the “Purity at hr 0” value ([2]; 10 wt %) was 98.2%, the “Purity at Day 3” value ([2]; 15 wt %) was 97.7% and the “Purity at Day 7” value ([2]; 15 wt %) was 97.6%. The “Purity at Day 14” value ([2]; 15 wt %) was 97.4%, the “Purity at Day 21” value ([2]; 15 wt %) was 97.1% and the “Purity at Day 28” value ([2]; 15 wt %) was 96.8%. For the same molecule, the “Purity at hr 0” value ([2]; 15 wt %) was 98.1%, the “Purity at Day 3” value ([2]; 20 wt %) was 97.6% and the “Purity at Day 7” value ([2]; 20 wt %) was 97.5%. The “Purity at Day 14” value ([2]; 20 wt %) was 97.2%, the “Purity at Day 21” value ([2]; 20 wt %) was 97.1% and the “Purity at Day 28” value ([2]; 20 wt %) was 96.8%. For the same molecule, the “Purity at hr 0” value ([2]; 20 wt %) was 98.0%, the “Purity at Day 3” value ([2]; 30 wt %) was 97.7% and the “Purity at Day 7” value ([2]; 30 wt %) was 97.5%. The “Purity at Day 14” value ([2]; 30 wt %) was 97.3%, the “Purity at Day 21” value ([2]; 30 wt %) was 97.0% and the “Purity at Day 28” value ([2]; 30 wt %) was 96.7%. The “Purity at hr 0” value ([2]; 30 wt %) was 98.1%, the “Purity at Day 3” value ([2]; 50 wt %) was 97.8% and the “Purity at Day 7” value ([2]; 50 wt %) was 97.5%. For the same molecule, the “Purity at Day 14” value ([2]; 50 wt %) was 97.2%, the “Purity at Day 21” value ([2]; 50 wt %) was 96.9% and the “Purity at Day 28” value ([2]; 50 wt %) was 96.8%. For the same molecule, the “Purity at hr 0” value ([2]; 50 wt %) was 98.2% and the “Stability when the concentration is 0.1% or lower” value [2] was “not stable”.
